From patent US20240279218A1 (Hoffmann-La Roche Inc., priority 2016, published 2024)

Key:
h-GABA-A α5β3γ2 [1] = target: T1, h-GABA-A α5β3γ2 (Homo sapiens (Human), UniProt P18507+P31644); experiment: Two-electrode voltage clamp electrophysiology in Xenopus oocytes expressing GABAA receptors, modulation of GABA EC20 current; type: cell-based; conditions: Xenopus oocytes; for Efficacy (GABA) %: % modulation of GABA EC20 = 100*(Fold increase−1); for Fold increase h-GABA-A α5β3γ2 oocyte: GABA EC20, test compound at approx. 30 fold its Ki
How it was run: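 Values are % modulation of an EC20 GABA response, derived point by point from the ratio of compound-exposed versus control current traces (extremum taken, 100×(fold−1)). Recordings used oocytes injected with human α5, β3, γ2 mRNA, clamped at −80 mV at room temperature, at least 3 oocytes each.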

h-GABA-A α5β3γ2 [2] = target: T1, h-GABA-A α5β3γ2; experiment: [3H]flumazenil competition binding assay, membranes of HEK293 cells expressing human GABAA receptors; conditions: displacement of [3H]flumazenil 0.5 nM, HEK293 cells expressing human receptors, mean of two determinations; read-out: Ki h-GABA-A α5β3γ2
How it was run: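 Displacement of [3H]flumazenil from membranes of HEK293 cells transiently expressing human α5β3γ2 receptors, in Krebs-tris buffer pH 7.5. Incubation to equilibrium, 1 h at 4° C., then filtration and scintillation counting. Ki is the mean of two determinations.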

Compound	Efficacy (GABA) % (h-GABA-A α5β3γ2 [1]) [%]	Fold increase h-GABA-A α5β3γ2 oocyte (h-GABA-A α5β3γ2 [1])	Ki (h-GABA-A α5β3γ2 [2]) [nM]
CO[C@H]1CC[C@@H](NC(=O)c2ccc(OCc3c(-c4ccc(C)nc4)noc3C)nn2)CC1 [Example 158, cis-N-(4-methoxycyclohexyl)-6-((5-methyl-3-(6-methylpyridin-3-yl)isoxazol-4-yl)methoxy)pyridazine-3-carboxamide]	79	1.79	18.2
Cc1ccc(-c2noc(C)c2COc2ccc(C(=O)N[C@H]3CC[C@H](O)CC3)nn2)cn1 [Example 153, trans-N-(4-hydroxycyclohexyl)-6-((5-methyl-3-(6-methylpyridin-3-yl)isoxazol-4-yl)methoxy)pyridazine-3-carboxamide]	84	1.84	5.5
Cc1ccc(-c2noc(C)c2COc2ccc(C(=O)N3CC(F)C3)nn2)cn1 [Example 65, (3-fluoroazetidin-1-yl)(6-((5-methyl-3-(6-methylpyridin-3-yl)isoxazol-4-yl)methoxy)pyridazin-3-yl)methanone]	62	1.62	7.2
Cc1ccc(-c2noc(C)c2COc2ccc(C(=O)NC3(C)COC3)nn2)cn1 [Example 83, 6-((5-methyl-3-(6-methylpyridin-3-yl)isoxazol-4-yl)methoxy)-N-(3-methyloxetan-3-yl)pyridazine-3-carboxamide]	96	1.96	5
Cc1ccc(-c2noc(C3CC3)c2COc2ccc(C(=O)NC3CCOCC3)cn2)cn1 [Example 6, 6-((5-cyclopropyl-3-(6-methyl-3-pyridyl)isoxazol-4-yl)methoxy)-N-tetrahydropyran-4-yl-pyridine-3-carboxamide]	167	2.67	54.1
CCc1onc(-c2ccc(C)nc2)c1COc1ccc(C(=O)NC2CCOCC2)nn1 [Example 121, 6-((5-ethyl-3-(6-methylpyridin-3-yl)isoxazol-4-yl)methoxy)-N-(tetrahydropyran-4-yl)pyridazine-3-carboxamide]	109	2.09	40.3
Cc1ccc(-c2noc(C)c2COc2ccc(C(=O)N[C@@H]3CC[C@@](O)(C(F)(F)F)C3)nn2)cn1 (single isomer, unassigned) [Example 149]	37	1.37	5
Cc1ccc(-c2noc(C)c2COc2ccc(C(=O)NC3COC3)nn2)cn1 [Example 35, 6-((5-methyl-3-(6-methylpyridin-3-yl)isoxazol-4-yl)methoxy)-N-(oxetan-3-yl)pyridazine-3-carboxamide]	82	1.82	4.4
CO[C@H]1CC[C@H](NC(=O)c2ccc(OCc3c(-c4ccc(C)nc4)noc3C)nn2)CC1 [Example 154, trans-N-(4-methoxycyclohexyl)-6-((5-methyl-3-(6-methylpyridin-3-yl)isoxazol-4-yl)methoxy)pyridazine-3-carboxamide]	97	1.97	10
Cc1ccc(-c2noc(C(F)F)c2COc2ccc(C(=O)NC3CCOCC3)cn2)cn1 [Example 126, 6-((5-(difluoromethyl)-3-(6-methyl-3-pyridyl)isoxazol-4-yl)methoxy)-N-tetrahydropyran-4-yl-pyridine-3-carboxamide]	49	1.49	49.8
Cc1ccc(-c2noc(C)c2COc2ccc(C(=O)N[C@H]3CC[C@H](OCC(F)F)CC3)nn2)cn1 [Example 194, trans-N-(4-(2,2-difluoroethoxy)cyclohexyl)-6-((5-methyl-3-(6-methylpyridin-3-yl)-1,2-oxazol-4-yl)methoxy)pyridazine-3-carboxamide]	84	1.84	13.3
Cc1ccc(-c2noc(C)c2COc2ccc(C(=O)NC3(C)CCOCC3)nn2)cn1 [Example 97, 6-((5-methyl-3-(6-methylpyridin-3-yl)isoxazol-4-yl)methoxy)-N-(4-methyltetrahydropyran-4-yl)pyridazine-3-carboxamide]	71	1.71	13.6
Cc1ccc(-c2noc(C)c2COc2ccc(C(=O)NC3CCOCC3)nn2)nn1 [Example 193, 6-((5-methyl-3-(6-methylpyridazin-3-yl)isoxazol-4-yl)methoxy)-N-(tetrahydropyran-4-yl)pyridazine-3-carboxamide]	64	1.64	1
COC1CN(C(=O)c2ccc(OCc3c(-c4ccc(C)nc4)noc3C)nn2)C1 [Example 55, (3-methoxyazetidin-1-yl)(6-((5-methyl-3-(6-methylpyridin-3-yl)isoxazol-4-yl)methoxy)pyridazin-3-yl)methanone]	57	1.57	8.6
Cc1ccc(-c2noc(C)c2COc2nnc(C(N)=O)cc2C)cn1 [Example 70, 5-methyl-6-((5-methyl-3-(6-methylpyridin-3-yl)isoxazol-4-yl)methoxy)pyridazine-3-carboxamide]	54	1.54	1.2
Cc1ccc(-c2noc(C)c2COc2cnc(C(=O)NC3CCS(=O)(=O)CC3)cn2)cn1 [Example 72, N-(1,1-dioxothian-4-yl)-5-((5-methyl-3-(6-methyl-3-pyridyl)isoxazol-4-yl)methoxy)pyrazine-2-carboxamide]	130	2.3	11.4
Cc1ccc(-c2noc(C3CC3)c2COc2ccc(C(=O)NC3CCOCC3)nn2)nn1 [Example 165, 6-((5-cyclopropyl-3-(6-methylpyridazin-3-yl)isoxazol-4-yl)methoxy)-N-(tetrahydropyran-4-yl)pyridazine-3-carboxamide]	174	2.74	2.6
Cc1ccc(-c2noc(C)c2COc2cc3c(cn2)C(=O)N(C2CC4(COC4)C2)C3)cn1 [Example 117, 6-((5-methyl-3-(6-methylpyridin-3-yl)isoxazol-4-yl)methoxy)-2-(2-oxaspiro[3.3]heptan-6-yl)-1H-pyrrolo[3,4-c]pyridin-3(2H)-one]	99	1.99	15.6
Cc1ccc(-c2noc(C)c2COc2cnc(C(=O)NC3COC3)cn2)cn1 [Example 77, 5-((5-methyl-3-(6-methyl-3-pyridyl)isoxazol-4-yl)methoxy)-N-(oxetan-3-yl)pyrazine-2-carboxamide]	11	1.11	5.2
Cc1ccc(-c2noc(CF)c2COc2ccc(C(=O)NC3(C(F)(F)F)CC3)nn2)cn1 [Example 184, 6-((5-(fluoromethyl)-3-(6-methylpyridin-3-yl)isoxazol-4-yl)methoxy)-N-(1-(trifluoromethyl)cyclopropyl)pyridazine-3-carboxamide]	96	1.96	51.2
Cc1ccc(-c2noc(C)c2COc2ccc(C(=O)N[C@H]3C[C@H](OC4CC4)C3)nn2)cn1 [Example 175, trans-N-(3-cyclopropoxycyclobutyl)-6-((5-methyl-3-(6-methylpyridin-3-yl)isoxazol-4-yl)methoxy)pyridazine-3-carboxamide]	82	1.82	10.1
Cc1ccc(-c2noc(C)c2COc2ccc(C(=O)NCC(C)C)nn2)cn1 [Example 39, N-isobutyl-6-((5-methyl-3-(6-methylpyridin-3-yl)isoxazol-4-yl)methoxy)pyridazine-3-carboxamide]	89	1.89	14.6
Cc1ccc(-c2noc(C)c2COc2ccc(C(=O)NC3(C)CCS(=O)(=O)CC3)nn2)cn1 [Example 111, N-(4-methyl-1,1-dioxidotetrahydro-2H-thiopyran-4-yl)-6-((5-methyl-3-(6-methylpyridin-3-yl)isoxazol-4-yl)methoxy)pyridazine-3-carboxamide]	89	1.89	4.6
Cc1ccc(-c2noc(C)c2COc2cc3c(cn2)C(=O)N(C)C3)cn1 [Example 10, 2-methyl-6-((5-methyl-3-(6-methylpyridin-3-yl)isoxazol-4-yl)methoxy)-1H-pyrrolo[3,4-c]pyridin-3(2H)-one]	80	1.8	18.9
CC1(NC(=O)c2ccc(OCc3c(-c4ccc(Cl)nc4)noc3C3CC3)nn2)COC1 [Example 177]	109	2.09	39.7
Cc1ccc(-c2noc(C)c2COc2ccc(C(=O)N[C@@H]3CCCC[C@H]3O)nn2)cn1 [Example 25, N-((1R,2R)-2-hydroxycyclohexyl)-6-((5-methyl-3-(6-methylpyridin-3-yl)isoxazol-4-yl)methoxy)pyridazine-3-carboxamide]	59	1.59	9.4
